Test results taken from patent US6620961B1, “Biarylalkylenecarbamic acid derivatives and bacteriocides for agricultural and horticultural use” (Kumiai Chemical Industry Co., Ltd., priority 1997, dated 2003).

Columns and labels:
Assay type in all cases: in vivo
Set-up in all cases: key: A: No diseased area; B: Diseased area of less than 25%; C: Diseased area of at least 25% but less than 50%; Diseased area of at least 50%
[1] = tested on: Pseudoperonospora cubensis; assay: Test for Preventive Effect on Cucumber Downy Mildew; settings: cucumber seedlings, wettable powder at 500 ppm active ingredient, 7 days after inoculation
Description: Test for Preventive Effect on Cucumber Downy Mildew 9 cucumber seeds (variety: Sagami-hanpaku) were sown in each 9 cmx9 cm polyvinyl chloride pot and grown in a greenhouse for 7 days. […] Then, the seedlings were inoculated with Pseudoperonospora cubensis zoosporangia in suspension by spraying and immediately placed in a moist chamber at 22° C. for 24 hours. Thereafter, the seedlings were placed in a greenhouse. 7 days after the inoculation, the total diseased area in each pot was observed and evaluated on the basis of the standards shown in Table 59. [table]

Erysiphe graminis = assay: Test for Preventive Effect on Wheat Powdery Mildew; settings: wheat seedlings (Norin-61-go), 500 ppm active ingredient, 10 ml per pot, 10 days after inoculation
Description: [table] Test for Preventive Effect on Wheat Powdery Mildew 9 wheat seeds (variety: […] Then, the seedlings were inoculated with […] graminis spores in suspension and placed in a greenhouse at 25 to 30° C. 10 days after the inoculation, the total diseases area of the first leaves in each pot was observed and evaluated on the basis of the standards shown in Table 59. The results are shown in Tables 67 to 71.

Venturia inaequalis = assay: Test for Preventive Effect on Apple Scab; settings: 14 days after inoculation; for Evaluation (diseased area of the upper two inoculated leaves): apple seedlings (Kogyoku), 500 ppm active ingredient, 20 ml per pot; for Evaluation (diseased areas of the upper two of the inoculated leaves): apple seedlings, wettable powder at 500 ppm active ingredient, preventive
Description: [table] Test for Preventive Effect on Apple Scab 5 apple seeds (variety: Kogyoku) were sown in each 9 cm×9 cm polyvinyl chloride pot and grown in a greenhouse for 20 days. […] Then, the seedlings were inoculated with Venturia inaequalis spores in suspension by spraying and immediately placed in a moist chamber at 22° C. for 48 hours. Thereafter, the seedlings were placed in a greenhouse for development of the disease. 14 days after the inoculation, the diseased areas of the upper two of the inoculated leaves were observed and evaluated on the basis of the standards shown in Table 59.

Botrytis cinerea = assay: Test for Preventive Effect on Cucumber Gray Mold; settings: cotyledonary cucumber seedlings (Sagami-hanziro), 500 ppm active ingredient, 10 ml per pot, 3 days after inoculation
Description: [table] Test for Preventive Effect on Cucumber Gray Mold 9 cucumber seeds (variety: Sagami-hanziro) were sown in each 9 cm−9 cm polyvinyl chloride pot and grown in a greenhouse for 7 days. […] Then, the seedlings were inoculated with milled Botrytis cinerea hyphae in solution by spraying and immediately placed in a moist chamber at 22° C. 3 days after the inoculation, the total diseased area in each pot was observed and evaluated on the basis of the standards shown in Table 59.

SMILES	Evaluation (total diseased area in each pot) [1]	Evaluation (total diseased area of the first leaves in each pot) (Erysiphe graminis)	Evaluation (diseased area of the upper two inoculated leaves) (Venturia inaequalis)	Evaluation (total diseased area in each pot) (Botrytis cinerea)	Evaluation (diseased areas of the upper two of the inoculated leaves) (Venturia inaequalis)
COC(=O)NC(C)c1cccc(-c2ccccc2)c1 (racemic) [3-1]	A	B (Diseased area of less than 25%)	A		
COC(=O)NC(C)c1cccc(-c2ccc(Cl)cc2)c1 (racemic) [3-5]		B (Diseased area of less than 25%)	A	B (Diseased area of less than 25%)	
COC(=O)NC(C)c1cccc(-c2cccc(C)c2)c1 (racemic) [3-6]	A	A	A		
COC(=O)NC(C)c1cccc(-c2cccc(C(F)(F)F)c2)c1 (racemic) [3-16]	A	A	A		
COC(=O)NC(C)c1cccc(-c2ccc(F)c(Cl)c2)c1 (racemic) [3-21]	A	B (Diseased area of less than 25%)	A		
COC(=O)NC(C)c1cc(-c2ccc(F)cc2)ccc1F (racemic) [3-28]		B (Diseased area of less than 25%)	A	B (Diseased area of less than 25%)	
COC(=O)NC(C)c1cc(-c2ccc(Cl)cc2)ccc1F (racemic) [3-30]		B (Diseased area of less than 25%)	B (Diseased area of less than 25%)	B (Diseased area of less than 25%)	
COC(=O)NCc1cccc(-c2cccc(Cl)c2)c1 [1-3]	A	A			A
COC(=O)NCc1cccc(-c2ccc(Cl)cc2)c1 [1-4]		B (Diseased area of less than 25%)		A	A
COC(=O)NCc1cccc(-c2ccc(F)cc2)c1 [1-7]	B (Diseased area of less than 25%)	A			A
COC(=O)NCc1cccc(-c2ccccc2C(F)(F)F)c1 [1-33]	B (Diseased area of less than 25%)	A			A
COC(=O)NCc1cccc(-c2cccc(C(F)(F)F)c2)c1 [1-34]	A	A			A
COC(=O)NCc1cccc(-c2ccc(C(F)(F)F)cc2)c1 [1-35]		A		B (Diseased area of less than 25%)	A
COC(=O)NCc1cccc(-c2cccc(OC)c2)c1 [1-41]	A	A			A
COC(=O)NCc1cccc(-c2ccc(OC)cc2)c1 [1-42]		B (Diseased area of less than 25%)		B (Diseased area of less than 25%)	A
COC(=O)NCc1cccc(-c2cccc([N+](=O)[O-])c2)c1 [1-103]	B (Diseased area of less than 25%)				A
COC(=O)NCc1cccc(-c2ccc(Cl)c(Cl)c2)c1 [1-118, Methyl N-[3-(3,4-dichlorophenyl)benzyl]carbamate]	B (Diseased area of less than 25%)	A			A
COC(=O)NCc1cccc(-c2cc(Cl)cc(Cl)c2)c1 [1-119]	B (Diseased area of less than 25%)	A			A

SMILES	Evaluation (total diseased area in each pot) [1]	Evaluation (total diseased area of the first leaves in each pot) (Erysiphe graminis)	Evaluation (diseased area of the upper two inoculated leaves) (Venturia inaequalis)	Evaluation (total diseased area in each pot) (Botrytis cinerea)	Evaluation (diseased areas of the upper two of the inoculated leaves) (Venturia inaequalis)
COC(=O)NCc1cccc(-c2ccc(C)c(C)c2)c1 [1-125]	A	A			A
CNC(=O)NCc1cccc(-c2ccccc2)c1 [1-253]	B (Diseased area of less than 25%)				
COC(=O)N(Cc1cccc(-c2cccc(C)c2)c1)OC [1-266]	B (Diseased area of less than 25%)	A			A
COC(=O)NCc1ccc(OC)c(-c2ccccc2)c1 [2-65]				B (Diseased area of less than 25%)	B (Diseased area of less than 25%)
COC(=O)NCc1cc(C)cc(-c2ccccc2)c1 [2-91]	B (Diseased area of less than 25%)	A			A
COC(=O)NCc1cc(C)cc(-c2cccc(C(F)(F)F)c2)c1 [2-98]	B (Diseased area of less than 25%)	A			A
COC(=O)NCc1cc(-c2ccccc2)ccc1F [2-102]	A	A			A
COC(=O)NCc1cc(-c2cccc(Cl)c2)ccc1F [2-106]	A	A			A
COC(=O)NCc1cc(-c2ccc(Cl)cc2)ccc1F [2-107]	A	A			A
COC(=O)NCc1cc(-c2cccc(C)c2)ccc1F [2-109]	A	A			A
COC(=O)NCc1cc(-c2ccc(C)cc2)ccc1F [2-110]	A	B (Diseased area of less than 25%)			A
COC(=O)NCc1cc(-c2cccc(C(C)C)c2)ccc1F [2-113]	B (Diseased area of less than 25%)	A			A
COC(=O)NCc1cc(-c2ccc(Cl)cc2)ccc1OC [2-332]		B (Diseased area of less than 25%)	A	B (Diseased area of less than 25%)	
COC(=O)NCc1cc(-c2cccc(C)c2)ccc1OC [2-333]	A	B (Diseased area of less than 25%)	A		
COC(=O)NCc1cc(-c2cccc(O)c2)ccc1Cl [2-448]		A	A	A	
COC(=O)NCc1cc(-c2ccc(Br)cc2)ccc1Cl [2-453]		A	A	A	
COC(=O)N(Cc1cccc(-c2ccccc2)c1C)OC [4-22, Methyl N-methoxy-N-(2-methyl-3-phenylbenzyl)carbamate]		A	A		
COC(=O)NCc1cccc(-c2ccc3ccccc3c2C)c1 [6-1]		B (Diseased area of less than 25%)	A		
